According to US8017633B2, “Roflumilast for the treatment of diabetes mellitus” (Nycomed GmbH, priority 2005, dated 2011):

Assays:
C57BLKS db/db mice [1] = assay: Daily food intake of db/db mice during once-daily oral treatment; format: in vivo, mouse
Protocol: (§1) Female C57BLKS db/db mice obtained from M&B A/S (8680 Ry, Denmark) were used in the studies at 10 to 11 weeks of age. Mice were housed 10 per cage and allowed free access to water and standard laboratory diet for rodents (chow 3433, Provimi Kliba SA, 4303 Kaiseraugst, Switzerland).
(§2) Mice were treated with vehicle, Roflumilast or Roflumilast-N-Oxide, respectively once daily in the morning. Roflumilast or Roflumilast-N-Oxide was suspended in 4% methocel and applied via oral gavage using oral feeding & dosing needles (outer diameter: 1.5 mm, TSE GmbH, 61350 Bad Homburg, Germany). A volume of 10 ml/kg body weight was administered for each dose.
The daily intake of food (chow 3433) and water was measured per animal (total daily intake of food divided by the number of animals) before and during the treatment with Roflumilast or Roflumilast-N-Oxide.

C57BLKS db/db mice [2] = assay: 10 days study: fasting blood glucose and oral glucose tolerance in db/db mice; format: in vivo, mouse; conditions: for Blood glucose (15 min after glucose application) / Blood glucose (before glucose application): fasted 24 h; for Blood glucose (15 min after glucose application): 15 min after oral 1 g/kg glucose; for Blood glucose (before glucose application): 1 h after dose
Protocol: as §1
Mice were allowed to acclimate to the local animal facilities for 1 week and retro-orbital blood samples were obtained 3 to 7 days prior to the start of the study.
as §2
10 days studies: Mice were treated with vehicle, Roflumilast or Roflumilast-N-Oxide once daily in the morning. On day 9, mice were fasted for 24 hours by removing standard diet for laboratory animals 1 hour after drug application. On day 10, one hour after administration of vehicle, Roflumilast or Roflumilast-N-Oxide glucose tolerance was assessed by oral application of 1 g/kg/10 ml glucose. Blood was sampled before and 15 minutes after glucose application and levels of glucose (accu-chek, Roche Diagnostics GmbH, 68298 Mannheim, Germany) were measured.

[3] = Rof-N-Oxide 1 mg/kg oral once daily 10 days
[4] = Rof-N-Oxide 3 mg/kg oral once daily 10 days
[5] = Rof-N-Oxide 10 mg/kg oral once daily 10 days
[6] = Rof-N-Oxide 30 mg/kg oral once daily 10 days

O=C(Nc1c(Cl)c[n+]([O-])cc1Cl)c1ccc(OC(F)F)c(OCC2CC2)c1 [Rof-N-Oxide, 3-cyclopropylmethoxy-4-difluoromethoxy-N-(3,5-dichloro-1-oxido-pyridin-4-yl)benzamide]
Daily food intake on the days of application (C57BLKS db/db mice [1]; 1 mg/kg oral once daily, Day 3): 5.8 g per mouse | Daily food intake on the days of application (C57BLKS db/db mice [1]; 1 mg/kg oral once daily, Day 4): 5.5 g per mouse | Daily food intake on the days of application (C57BLKS db/db mice [1]; 1 mg/kg oral once daily, Day 5): 5.6 g per mouse | Daily food intake on the days of application (C57BLKS db/db mice [1]; 1 mg/kg oral once daily, Day 6): 5.8 g per mouse | Daily food intake on the days of application (C57BLKS db/db mice [1]; 1 mg/kg oral once daily, Day 7): 5.4 g per mouse | Daily food intake on the days of application (C57BLKS db/db mice [1]; 1 mg/kg oral once daily, Day 8): 5.5 g per mouse | Daily food intake before the first application (C57BLKS db/db mice [1]; 3 mg/kg group, Day −1, before first application): 6.1 g per mouse | Daily food intake before the first application (C57BLKS db/db mice [1]; 3 mg/kg group, Day −2, before first application): 6.1 g per mouse | Daily food intake before the first application (C57BLKS db/db mice [1]; 3 mg/kg group, Day −3, before first application): 6.4 g per mouse | Daily food intake before the first application (C57BLKS db/db mice [1]; 3 mg/kg group, Day −4, before first application): 6.4 g per mouse | Daily food intake before the first application (C57BLKS db/db mice [1]; 3 mg/kg group, Day −5, before first application): 5.5 g per mouse | Daily food intake on the days of application (C57BLKS db/db mice [1]; 3 mg/kg oral once daily, Day 1): 4.9 g per mouse | Daily food intake on the days of application (C57BLKS db/db mice [1]; 3 mg/kg oral once daily, Day 2): 4.9 g per mouse | Daily food intake on the days of application (C57BLKS db/db mice [1]; 3 mg/kg oral once daily, Day 3): 4.5 g per mouse | Daily food intake on the days of application (C57BLKS db/db mice [1]; 3 mg/kg oral once daily, Day 4): 4.5 g per mouse | Daily food intake on the days of application (C57BLKS db/db mice [1]; 3 mg/kg oral once daily, Day 5): 4.6 g per mouse | Daily food intake on the days of application (C57BLKS db/db mice [1]; 3 mg/kg oral once daily, Day 6): 4.9 g per mouse | Daily food intake on the days of application (C57BLKS db/db mice [1]; 3 mg/kg oral once daily, Day 7): 4.3 g per mouse | Daily food intake on the days of application (C57BLKS db/db mice [1]; 3 mg/kg oral once daily, Day 8): 4.2 g per mouse | Daily food intake before the first application (C57BLKS db/db mice [1]; 10 mg/kg group, Day −1, before first application): 6.5 g per mouse | Daily food intake before the first application (C57BLKS db/db mice [1]; 10 mg/kg group, Day −2, before first application): 6.4 g per mouse | Daily food intake before the first application (C57BLKS db/db mice [1]; 10 mg/kg group, Day −3, before first application): 6.4 g per mouse | Daily food intake before the first application (C57BLKS db/db mice [1]; 10 mg/kg group, Day −4, before first application): 6.2 g per mouse | Daily food intake before the first application (C57BLKS db/db mice [1]; 10 mg/kg group, Day −5, before first application): 6.0 g per mouse | Daily food intake on the days of application (C57BLKS db/db mice [1]; 10 mg/kg oral once daily, Day 1): 2.9 g per mouse | Daily food intake on the days of application (C57BLKS db/db mice [1]; 10 mg/kg oral once daily, Day 2): 3.3 g per mouse | Daily food intake on the days of application (C57BLKS db/db mice [1]; 10 mg/kg oral once daily, Day 3): 3.5 g per mouse | Daily food intake on the days of application (C57BLKS db/db mice [1]; 10 mg/kg oral once daily, Day 4): 2.9 g per mouse | Daily food intake on the days of application (C57BLKS db/db mice [1]; 10 mg/kg oral once daily, Day 5): 3.0 g per mouse | Daily food intake on the days of application (C57BLKS db/db mice [1]; 10 mg/kg oral once daily, Day 6): 3.1 g per mouse | Daily food intake on the days of application (C57BLKS db/db mice [1]; 10 mg/kg oral once daily, Day 7): 2.6 g per mouse | Daily food intake on the days of application (C57BLKS db/db mice [1]; 10 mg/kg oral once daily, Day 8): 3.8 g per mouse | Daily food intake before the first application (C57BLKS db/db mice [1]; 30 mg/kg group, Day −1, before first application): 6.3 g per mouse | Daily food intake before the first application (C57BLKS db/db mice [1]; 30 mg/kg group, Day −2, before first application): 6.2 g per mouse | Daily food intake before the first application (C57BLKS db/db mice [1]; 30 mg/kg group, Day −3, before first application): 6.5 g per mouse | Daily food intake before the first application (C57BLKS db/db mice [1]; 30 mg/kg group, Day −4, before first application): 6.4 g per mouse | Daily food intake before the first application (C57BLKS db/db mice [1]; 30 mg/kg group, Day −5, before first application): 5.8 g per mouse | Daily food intake on the days of application (C57BLKS db/db mice [1]; 30 mg/kg oral once daily, Day 1): 1.4 g per mouse | Daily food intake on the days of application (C57BLKS db/db mice [1]; 30 mg/kg oral once daily, Day 2): 0.9 g per mouse | Daily food intake on the days of application (C57BLKS db/db mice [1]; 30 mg/kg oral once daily, Day 3): 1.2 g per mouse | Daily food intake on the days of application (C57BLKS db/db mice [1]; 30 mg/kg oral once daily, Day 4): 0.8 g per mouse | Daily food intake on the days of application (C57BLKS db/db mice [1]; 30 mg/kg oral once daily, Day 5): 0.9 g per mouse | Daily food intake on the days of application (C57BLKS db/db mice [1]; 30 mg/kg oral once daily, Day 6): 1.1 g per mouse | Daily food intake on the days of application (C57BLKS db/db mice [1]; 30 mg/kg oral once daily, Day 7): 0.7 g per mouse | Daily food intake on the days of application (C57BLKS db/db mice [1]; 30 mg/kg oral once daily, Day 8): 0.6 g per mouse | Effect on daily food intake (summary in words) (C57BLKS db/db mice [1]; db/db mice, treatment once daily oral): reduce in a dose-dependent manner | Blood glucose (15 min after glucose application) (C57BLKS db/db mice [2]; [3]): 595 mg/dL | Blood glucose (before glucose application) (C57BLKS db/db mice [2]; [3]): 220 mg/dL | Blood glucose (15 min after glucose application) (C57BLKS db/db mice [2]; [4]): 467 mg/dL | Blood glucose (before glucose application) (C57BLKS db/db mice [2]; [4]): 174 mg/dL | Blood glucose (15 min after glucose application) (C57BLKS db/db mice [2]; [5]): 423 mg/dL | Blood glucose (before glucose application) (C57BLKS db/db mice [2]; [5]): 139 mg/dL | Blood glucose (15 min after glucose application) (C57BLKS db/db mice [2]; [6]): 326 mg/dL | Blood glucose (before glucose application) (C57BLKS db/db mice [2]; [6]): 146 mg/dL | Effect on fasting blood glucose levels (summary in words) (C57BLKS db/db mice [2]; db/db mice): reduce | Effect on postprandial blood glucose levels (summary in words) (C57BLKS db/db mice [2]; db/db mice): reduce
